Experimental data as given in US6953789B2, “Thiol compounds, their production and use” (Takeda Chemical Industries, Ltd., priority 1998, dated 2005).

Experiments:
nasal cartilage = experiment: Assay of cartilage collagen degradation inhibiting activity (IL-1β-stimulated nasal cartilage pieces, hydroxyproline release); assay type: cell-based, cow; settings: 504 h; at 1 μM of compound; human recombinant IL-1β; incubation 3 weeks
Experimental: A nasal cartilage was isolated aseptically from a sacrificed cow, and preincubated in a Dulbecco's modified eagle medium containing 5% heat-inactivated fetal bovine serum, 100 units/ml of penicillin G and 100 units/ml of streptomycin at 37° C. under 5% CO2 and 95% air for 3 days. After completing the preincubation, a cartilage piece weighing about 10 mg was prepared and placed in 100 μl of a medium supplemented with a human recombinant interleukin-1β (IL-1β: *ZENZYME*) and a test compound. After incubating for 3 weeks in total during which the culture medium was replaced on the weekly basis, the total amount of hydroxyproline liberated into the culture medium and the amount of hydroxyproline remaining in the cartilage piece were determined and % collagen degradation was calculated. The collagen degradation inhibiting activity of a test compound was determined according to the following equation. Collagen degradation inhibiting activity (%)=100×(Ci−Cs)/(Ci−Cc) Equation: wherein Cc is % collagen degradation in the absence of both of IL-1β and compound, Ci is % collagen degradation in the presence of IL-1β, and Cs is a % collagen degradation in the presence of both of IL-1β and a test compound.

recombinant human MMP-13 = molecular target: T1, recombinant human MMP-13 (Homo sapiens, UniProt P45452); experiment: Assay of MMP-13 inhibiting activity (fluorogenic peptide substrate); assay type: biochemical; settings: 37° C., 2 hours
T1 construct: made in house; host or cells: baculovirus (pBlueBac4 / Bac-N-Blue; virus made in Sf9), expressed in High-Five insect cells; culture supernatant used
Summary of the method: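 Baculovirus-expressed human MMP-13 (High-Five cell supernatant) in pH 7.5 Tris buffer with 200 mM NaCl, 20 mM CaCl2, 0.1% Brij 35, 1 mM 2-mercaptoethanol; reaction started with 40 μM (stock) MOCAc-PLGL-A2pr(DNP)-AR-NH2, 2 h at 37 °C, stopped at pH 3.0. Fluorescence 330/405 nm; IC50 versus no-compound control.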

IC50 (recombinant human MMP-13; Table 3) [nM] | IC50 (recombinant human MMP-13; Table 5) [nM] | IC50 (recombinant human MMP-13; Table 11) [nM] | IC50 (recombinant human MMP-13; Table 9) [nM] | Compound | inhibition at 1 µM (nasal cartilage) [%]
3 |  |  |  | O=C1C[C@@H](S)CN1Cc1ccc(Oc2ccccc2)cc1 [Example 25, (R)-4-Mercapto-1-(4-phenoxybenzyl)pyrrolidin-2-one] | 88
9 |  |  |  | CC(=O)S[C@@H]1CC(=O)N(Cc2ccc(Oc3ccccc3)cc2)C1 [Example 24, (R)-4-Acetylthio-1-(4-phenoxybenzyl)pyrrolidin-2-one] | 91
 | 9 |  |  | O=C1C[C@@H](S)[C@H](COCc2ccccc2)N1Cc1ccc(Oc2ccccc2)cc1 (relative stereo) [Example 39, Trans-5-benzyloxymethyl-4-mercapto-1-(4-phenoxybenzyl)pyrrolidin-2-one] | 39
 |  | 700 |  | CC(=O)SC1CC(=O)N(Cc2ccc(Oc3ccccn3)cc2)C1 (stereo not shown) [Example 156, 4-Acetylthio-1-[4-(2′-pyridyloxy)benzyl]pyrrolidin-2-one] | 84
 |  |  | 1.7 | O=C1C[C@@H](S)CN1Cc1ccc(Oc2ccc(Cl)cc2)cc1 [Example 126, (R)-4-Mercapto-1-[4-(4-chlorophenoxy)benzyl]pyrrolidin-2-one] | 70
